In US20230295234A1, “ANTIMICROBIAL PEPTIDOMIMETICS” (SPEXIS AG, priority 2020, published 2023):
Where two headings read alike, the source gives them in different places. Bridge positions count the residues as written; N and C are the ends. Square brackets hold non-standard residues; d marks the D form. Peptide text beside a SMILES is read from it. Gly(N(CH2)3NH2) = NCCCNCC(=O)O; Pen = CC(C)(S)[C@H](N)C(=O)O; dDab = NCC[C@@H](N)C(=O)O; Dab = NCC[C@H](N)C(=O)O

How the values were obtained:
[1] = test system: human red blood cells (hRBC); experiment: Hemolysis of human red blood cells; type: cell-based
Outline: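 PBS-washed human red blood cells (20% v/v) were incubated with peptide at 200 μg/mL for 1 h at 37 °C with shaking. Supernatant OD was read at 540 nm after 8-fold dilution. Hemolysis is expressed as percent of the water control.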

[2] = test system: Escherichia coli MCR-1 Af 45
Outline: (§1)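 Activity is measured against peptides serially diluted two-fold in water with 0.002% final Polysorbate 80. The cells are in cation-adjusted MHII broth at roughly 5×10^5 CFU/mL, prepared from a 0.5 McFarland suspension in 0.85% NaCl.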

[3] = test system: Escherichia coli ATCC 25922
Outline: as §1

[4] = test system: Klebsiella pneumoniae SSI3010
Outline: as §1

[5] = Mueller-Hinton broth II, 18-20 hours at 35° C.

Row | Compound | Hemolysis at 0.2 g/L ([1]; red cells of human, 1 h) [%] | Escherichia coli MCR-1 Af 45 MIC ([2]; MCR-1 Af 45) [µg/mL] | Escherichia coli ATCC 25922 MIC ([3]; ATCC 25922) [µg/mL] | Klebsiella pneumoniae SSI3010 MIC ([4]; SSI3010) [µg/mL] | Hemolysis at 0.2 g/L ([1]; 20% hRBC, 1 h at 37° C.) [%] | Escherichia coli MCR-1 Af 45 MIC [2, 5] [µg/mL] | Escherichia coli ATCC 25922 MIC [3, 5] [µg/mL] | Klebsiella pneumoniae SSI3010 MIC [4, 5] [µg/mL]
1 | CC[C@H](C)[C@H](NC(=O)[C@@H](NC(=O)[C@@H]1CCCN1C(=O)[C@@H](NC(=O)[C@@H]1CCCN1C(=O)[C@H](CCCCN)NC(=O)CNCCCCN)C(C)C)[C@@H](C)CC)C(=O)N[C@@H](Cc1ccc(O)cc1)C(=O)N[C@H]1CSSC[C@@H](C(=O)N[C@@H](CCN)C(=O)N[C@@H](CCCNC(=N)N)C(=O)N[C@@H](Cc2ccc(O)cc2)C(=O)O)NC(=O)[C@H](CCCCN)NC(=O)[C@@H](CCN)NC(=O)[C@H]([C@@H](C)O)NC(=O)[C@H](CCN)NC(=O)[C@H](CCCNC(=N)N)NC(=O)[C@H](CC(N)=O)NC1=O [Example 97] (HELM PEPTIDE1{[NCCCCNCC(=O)[*:2]].K.P.V.P.I.I.Y.C.N.R.[Dab].T.[NCC[C@@H](N[*:1])C(=O)[*:2]].K.C.[Dab].R.Y}$PEPTIDE1,PEPTIDE1,9:R3-16:R3$$$V2.0; N-terminus assumed) | 0 | ≤0.03125 | ≤0.03125 | ≤0.03125 |  |  |  | 
2 | CC[C@H](C)[C@H](NC(=O)[C@@H](NC(=O)[C@@H]1CCCN1C(=O)[C@@H](N)C(C)C)[C@@H](C)CC)C(=O)N[C@@H](Cc1ccc(O)cc1)C(=O)N[C@@H]1C(=O)N[C@@H](CC(N)=O)C(=O)N[C@@H](CCCNC(=N)N)C(=O)N[C@@H](CCN)C(=O)N[C@@H]([C@@H](C)O)C(=O)N[C@H](CCN)C(=O)N[C@@H](CCCCN)C(=O)N[C@H](C(=O)N[C@@H](CCN)C(=O)N[C@@H](CCCNC(=N)N)C(=O)N[C@@H](Cc2ccc(O)cc2)C(=O)O)CSSC1(C)C [Example 140] (HELM PEPTIDE1{V.P.I.I.Y.[Pen].N.R.[Dab].T.[NCC[C@@H](N[*:1])C(=O)[*:2]].K.C.[Dab].R.Y}$PEPTIDE1,PEPTIDE1,6:R3-13:R3$$$V2.0) |  |  |  |  | 0 | 0.0625 | 0.0625 | 0.125
3 | CC[C@H](C)[C@H](NC(=O)[C@@H]1C[C@@H](O)CN1C(=O)[C@@H](N)C(C)C)C(=O)N[C@@H](CCN)C(=O)N[C@@H](Cc1ccc(O)cc1)C(=O)N[C@@H]1C(=O)N[C@@H](CC(N)=O)C(=O)N[C@@H](CCCNC(=N)N)C(=O)N[C@@H](CCN)C(=O)N[C@@H]([C@@H](C)O)C(=O)N[C@H](CCN)C(=O)N[C@@H](CCCCN)C(=O)N[C@H](C(=O)N[C@@H](CCN)C(=O)N[C@@H](CCCNC(=N)N)C(=O)N[C@@H](Cc2ccc(O)cc2)C(=O)O)CSSC1(C)C [Example 158] (HELM PEPTIDE1{V.[Hyp].I.[Dab].Y.[Pen].N.R.[Dab].T.[NCC[C@@H](N[*:1])C(=O)[*:2]].K.C.[Dab].R.Y}$PEPTIDE1,PEPTIDE1,6:R3-13:R3$$$V2.0) | 0 |  | 0.125 | 0.5 |  | 0.125 |  | 
4 | CC[C@H](C)[C@H](NC(=O)CN(CCCN)C(=O)[C@@H](NC(=O)CNCCCN)C(C)C)C(=O)N[C@H](C(=O)N[C@@H](Cc1ccc(O)cc1)C(=O)N[C@@H]1C(=O)N[C@@H](CC(N)=O)C(=O)N[C@@H](CCCNC(=N)N)C(=O)N[C@@H](CCN)C(=O)N[C@@H]([C@@H](C)O)C(=O)N[C@H](CCN)C(=O)N[C@@H](CCCCN)C(=O)N[C@H](C(=O)N[C@@H](CCN)C(=O)N[C@@H](CCCNC(=N)N)C(=O)N[C@@H](Cc2ccc(O)cc2)C(=O)O)CSSC1(C)C)[C@@H](C)CC [Example 32, Norn-Val-Norn-Ile-Ile-Tyr-Pen-Asn-Arg-Dab-Thr-^DDab-Lys-Cys-Dab-Arg-Tyr] (H-[Gly(N(CH2)3NH2)]V[Gly(N(CH2)3NH2)]IIY[Pen]NR[Dab]T[dDab]KC[Dab]RY-OH; disulfide 7-14) | 0 | 0.0625 | 0.125 | 0.125 |  |  |  | 
5 | CC[C@H](C)[C@H](NC(=O)[C@@H](NC(=O)[C@@H]1CCCN1C(=O)[C@@H](NC(=O)[C@@H]1CCCN1C(=O)[C@H](CCCCN)NC(=O)[C@@H](N)CCCCN)C(C)C)[C@@H](C)CC)C(=O)N[C@@H](Cc1ccc(O)cc1)C(=O)N[C@H]1CSSC[C@@H](C(=O)N[C@@H](CCN)C(=O)N[C@@H](CCCNC(=N)N)C(=O)N[C@@H](CC2CCOCC2)C(=O)O)NC(=O)[C@H](CCCCN)NC(=O)[C@@H](CCN)NC(=O)[C@H]([C@@H](C)O)NC(=O)[C@H](CCN)NC(=O)[C@H](CCCNC(=N)N)NC(=O)[C@H](CC(N)=O)NC1=O [Example 80] (HELM PEPTIDE1{K.K.P.V.P.I.I.Y.C.N.R.[Dab].T.[NCC[C@@H](N[*:1])C(=O)[*:2]].K.C.[Dab].R.[O=C(O)[C@H](CC1CCOCC1)N[*:1]]}$PEPTIDE1,PEPTIDE1,9:R3-16:R3$$$V2.0) | 0 | 0.0625 | 0.0625 | 0.125 |  |  |  | 
6 | CC[C@H](C)[C@H](NC(=O)[C@@H](NC(=O)[C@@H]1CCCN1C(=O)[C@@H](NC(=O)[C@@H]1C[C@@H](N)CN1)C(C)C)[C@@H](C)CC)C(=O)N[C@@H](Cc1ccc(O)cc1)C(=O)N[C@@H]1C(=O)N[C@@H](CC(N)=O)C(=O)N[C@@H](CCCNC(=N)N)C(=O)N[C@@H](CCN)C(=O)N[C@@H]([C@@H](C)O)C(=O)N[C@H](CCN)C(=O)N[C@@H](CCCCN)C(=O)N[C@H](C(=O)N[C@@H](CCN)C(=O)N[C@@H](CCCNC(=N)N)C(=O)N[C@@H](Cc2ccc(O)cc2)C(=O)O)CSSC1(C)C [Example 24, Pro(4R)NH2)-Val-Pro-Ile-Ile-Tyr-Pen-Asn-Arg-Dab-Thr-^DDab-Lys-Cys-Dab-Arg-Tyr] (HELM PEPTIDE1{[N[C@H]1CN[C@H](C(=O)[*:2])C1].V.P.I.I.Y.[Pen].N.R.[Dab].T.[NCC[C@@H](N[*:1])C(=O)[*:2]].K.C.[Dab].R.Y}$PEPTIDE1,PEPTIDE1,7:R3-14:R3$$$V2.0) | 0 | 0.125 | 0.125 | 0.25 |  |  |  | 
7 | CCCC[C@H](NC(=O)[C@H](CCCNC(=N)N)NC(=O)[C@H](CCN)NC(=O)[C@@H]1CSSC[C@H](NC(=O)[C@H](Cc2ccc(O)cc2)NC(=O)[C@H](CCCNC(=N)N)NC(=O)[C@@H](NC(=O)[C@@H]2CCCN2C(=O)[C@@H](NC(=O)[C@@H]2CCCN2C(=O)[C@H](CCCNC(=N)N)NC(=O)[C@@H](N)CCCCN)C(C)C)[C@@H](C)CC)C(=O)N[C@@H](CC(N)=O)C(=O)N[C@@H](CCCNC(=N)N)C(=O)N[C@@H](CCN)C(=O)N[C@@H]([C@@H](C)O)C(=O)N[C@H](CCN)C(=O)N[C@@H](CCCCN)C(=O)N1)C(=O)O [Example 72] (HELM PEPTIDE1{K.R.P.V.P.I.R.Y.C.N.R.[Dab].T.[NCC[C@@H](N[*:1])C(=O)[*:2]].K.C.[Dab].R.[Nle]}$PEPTIDE1,PEPTIDE1,9:R3-16:R3$$$V2.0) | 0 | 0.0625 | ≤0.0625 | ≤0.25 |  |  |  | 
8 | CC[C@H](C)[C@H](NC(=O)[C@@H]1C[C@@H](O)CN1C(=O)[C@@H](N)C(C)C)C(=O)N[C@H](C(=O)N[C@@H](Cc1ccc(O)cc1)C(=O)N[C@@H]1C(=O)N[C@@H](CC(N)=O)C(=O)N[C@@H](CCCNC(=N)N)C(=O)N[C@@H](CCN)C(=O)N[C@@H]([C@@H](C)O)C(=O)N[C@H](CCN)C(=O)N[C@@H](CCCCN)C(=O)N[C@H](C(=O)N[C@@H](CCN)C(=O)N[C@@H](CO)C(=O)N[C@@H](Cc2ccc(O)cc2)C(=O)O)CSSC1(C)C)[C@@H](C)O [Example 176] (HELM PEPTIDE1{V.[Hyp].I.T.Y.[Pen].N.R.[Dab].T.[NCC[C@@H](N[*:1])C(=O)[*:2]].K.C.[Dab].S.Y}$PEPTIDE1,PEPTIDE1,6:R3-13:R3$$$V2.0) | 0 |  | 0.25 | 0.5 |  | 0.25 |  | 
9 | CCCC[C@H](NC(=O)[C@H](CCCNC(=N)N)NC(=O)[C@H](CCC(N)=O)NC(=O)[C@@H]1CSSC[C@H](NC(=O)[C@H](Cc2ccc(O)cc2)NC(=O)[C@@H](NC(=O)[C@@H](NC(=O)[C@@H]2CCCN2C(=O)[C@@H](NC(=O)[C@@H]2CCCN2C(=O)[C@H](CCCCN)NC(=O)[C@@H](N)CCCCN)C(C)C)[C@@H](C)CC)[C@@H](C)CC)C(=O)N[C@@H](CC(N)=O)C(=O)N[C@@H](CCCNC(=N)N)C(=O)N[C@@H](CCN)C(=O)N[C@@H]([C@@H](C)O)C(=O)N[C@H](CCN)C(=O)N[C@@H](CCN)C(=O)N1)C(=O)O [Example 64] (HELM PEPTIDE1{K.K.P.V.P.I.I.Y.C.N.R.[Dab].T.[NCC[C@@H](N[*:1])C(=O)[*:2]].[Dab].C.Q.R.[Nle]}$PEPTIDE1,PEPTIDE1,9:R3-16:R3$$$V2.0) | 0 | 0.125 | 0.0625 | 0.25 |  |  |  | 
